US12378249B2, “Isoquinoline compounds and uses thereof” (Genentech, Inc., priority 2018, dated 2025)

These compounds were tested against HPK1 (Homo sapiens (Human), UniProt Q92918, S171E/T165E) (assay: HPK1-FL HTRF Enzymatic Assay (HTRF)). Conditions: HPK full length T165E S171E 0.125 nM, ATP 1 mM, Biotin-SLP76 100 nM, read-out: HPK1 Ki (nM), H = HTRF.
Format: biochemical
Experimental: Exemplary compounds of Formula (I) were tested to assess compound inhibition of HPK-1. The Ki for each exemplary compound was determined
Example B1: HPK1-FL HTRF Enzymatic Assay (“HTRF”)
HPK-FL enzyme phosphorylates Biotin-SLP-76 substrate in the presence of ATP at 1 mM and varying concentrations of test compound. Product is detected by FRET using Eu-anti-pSLP76 Ab and SA-XL665. Also see www.cisbio.com/HTRF for additional HTRF technology information.
• Echo555 compound dispenser • Agilent Bravo • Perkin Elmer Envision Final Assay Conditions:
Materials: • Assay plate: White ProxiPlate 384 F (PerkinElmer cat #6008289) • Kinase: HPK full length double mutant • Substrate: Biotin-SLP76 • ATP: 100 mM ATP • BSG: 2% BSG • DMSO: DMSO (Sigma cat #34869-100ML) • Reaction Buffer: H2O/50 mM HEPES, pH 7.5/10 mM MgCl2/2 mM TCEP/0.01% Brij-35/0.01% BSG • Detection mix:Eu-anti-pSLP76/SA-XL665 (Cisbio, #610SAXAC) Assay Procedure Ki determination:
To a 384 well Proxiplate with 80 nL compound or DMSO spotted on was added 4 μl/well kinase mix. The mixture was preincubated for 30 minutes and then 4 μl/well substrate mix was added. The solution was incubated for 60 min and then 4 μl/well detection mix was added. The solution was incubated for another 60 min. The plates were then loaded onto a Perkin Elmer Envision and the TR-FRET signal was measured at 615 and 665 nm. A ratio of […] was used to calculate the % activity at each concentration of compound.

Chain of HPK1 (Q92918 whole entry T165E/S171E): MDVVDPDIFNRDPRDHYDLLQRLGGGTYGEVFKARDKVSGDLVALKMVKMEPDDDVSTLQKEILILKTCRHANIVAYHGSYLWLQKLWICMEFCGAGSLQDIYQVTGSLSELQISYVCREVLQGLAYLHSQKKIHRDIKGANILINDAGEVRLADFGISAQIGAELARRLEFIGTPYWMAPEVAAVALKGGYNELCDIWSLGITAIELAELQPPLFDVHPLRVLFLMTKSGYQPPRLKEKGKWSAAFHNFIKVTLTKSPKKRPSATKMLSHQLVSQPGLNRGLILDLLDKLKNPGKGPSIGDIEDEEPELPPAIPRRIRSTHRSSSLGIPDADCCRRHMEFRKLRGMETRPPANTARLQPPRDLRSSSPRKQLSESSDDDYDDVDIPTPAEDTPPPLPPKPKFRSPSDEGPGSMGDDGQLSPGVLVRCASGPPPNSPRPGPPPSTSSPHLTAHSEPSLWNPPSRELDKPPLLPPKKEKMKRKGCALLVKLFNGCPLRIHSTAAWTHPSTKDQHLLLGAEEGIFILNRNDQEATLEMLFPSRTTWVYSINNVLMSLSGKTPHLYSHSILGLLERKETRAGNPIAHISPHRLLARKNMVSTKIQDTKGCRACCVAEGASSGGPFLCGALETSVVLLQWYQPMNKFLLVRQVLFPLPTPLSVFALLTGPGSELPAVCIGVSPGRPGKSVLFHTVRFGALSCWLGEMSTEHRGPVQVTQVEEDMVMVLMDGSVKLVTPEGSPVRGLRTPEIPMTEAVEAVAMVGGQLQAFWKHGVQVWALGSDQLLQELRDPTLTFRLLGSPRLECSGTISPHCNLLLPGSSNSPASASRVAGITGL

SMILES | Ki [nM]
Cc1c(-c2cc3cc(Nc4cc5n(n4)CC(=O)N(CCO)CC5)ncc3cc2F)cnc2c1NCCO2 [Compound 145, 2-((7-fluoro-6-(8-methyl-2,3-dihydro-1H-pyrido[2,3-b][1,4]oxazin-7-yl)isoquinolin-3-yl)amino)-6-(2-hydroxyethyl)-5,6-dihydro-4H-pyrazolo[1,5-d][1,4]diazepin-7(8H)-one] | 0.013
Cc1c(-c2ccc3cnc(Nc4cc5n(n4)CC(=O)N(CCO)CC5)cc3c2F)cnc2c1NCCO2 [Compound 146, 2-((5-fluoro-6-(8-methyl-2,3-dihydro-1H-pyrido[2,3-b][1,4]oxazin-7-yl)isoquinolin-3-yl)amino)-6-(2-hydroxyethyl)-5,6-dihydro-4H-pyrazolo[1,5-d][1,4]diazepin-7(8H)-one] | 0.034
CN1CCc2cc(Nc3cc4cc(-c5cncc6c5CCC6O)c(F)cc4cn3)nn2CC1=O (racemic) [Compound 214, (+/-)-2-((7-fluoro-6-(7-hydroxy-6,7-dihydro-5H-cyclopenta[c]pyridin-4-yl)isoquinolin-3-yl)amino)-6-methyl-5,6-dihydro-4H-pyrazolo[1,5-d][1,4]diazepin-7(8H)-one] | 9
Cc1c(N)cncc1-c1cc2cc(Nc3cc4n(n3)Cc3nccn3CC4)ncc2c(F)c1F [Compound 157, N-(6-(5-amino-4-methylpyridin-3-yl)-7,8-difluoroisoquinolin-3-yl)-5,6-dihydro-11H-imidazo[1,2-a]pyrazolo[1,5-d][1,4]diazepin-8-amine] | 0.014
Cc1c(-c2cc3cc(Nc4cc5n(n4)Cc4nccn4CC5)ncc3c(F)c2F)cnc2c1NCCO2 [Compound 161, N-(7,8-difluoro-6-(8-methyl-2,3-dihydro-1H-pyrido[2,3-b][1,4]oxazin-7-yl)isoquinolin-3-yl)-5,6-dihydro-11H-imidazo[1,2-a]pyrazolo[1,5-d][1,4]diazepin-8-amine] | 0.014
Cc1c(-c2c(F)cc3cnc(Nc4cc5n(n4)CC(=O)N(C)CC5)cc3c2F)cnc2c1NCCO2 [Compound 223, 2-((5,7-difluoro-6-(8-methyl-2,3-dihydro-1H-pyrido[2,3-b][1,4]oxazin-7-yl)isoquinolin-3-yl)amino)-6-methyl-5,6-dihydro-4H-pyrazolo[1,5-d][1,4]diazepin-7(8H)-one] | 0.04
Cc1c(-c2cc3cc(Nc4cc5n(n4)Cc4nncn4CC5)ncc3cc2F)cnc2c1NCCO2 [Compound 151, N-(7-fluoro-6-(8-methyl-2,3-dihydro-1H-pyrido[2,3-b][1,4]oxazin-7-yl)isoquinolin-3-yl)-5,6-dihydro-11H-pyrazolo[1,5-d][1,2,4]triazolo[4,3-a][1,4]diazepin-8-amine] | 0.013
Cc1c(CN)cccc1-c1cc2cc(Nc3cc4n(n3)CC(=O)N(C)CC4)ncc2cc1F [Compound 207, 2-((6-(3-(aminomethyl)-2-methylphenyl)-7-fluoroisoquinolin-3-yl)amino)-6-methyl-5,6-dihydro-4H-pyrazolo[1,5-d][1,4]diazepin-7(8H)-one] | 22
CN1CCc2cc(Nc3cc4cc(-c5cncc(N)c5C(F)(F)F)c(F)cc4cn3)nn2CC1=O [Compound 227, 2-((6-(5-amino-4-(trifluoromethyl)pyridin-3-yl)-7-fluoroisoquinolin-3-yl)amino)-6-methyl-5,6-dihydro-4H-pyrazolo[1,5-d][1,4]diazepin-7(8H)-one] | 0.29
Cc1ccncc1-c1cc2cc(Nc3cn4c(n3)CC(=O)N(C)CC4)ncc2c(Cl)c1F [Compound 114, 2-((8-chloro-7-fluoro-6-(4-methylpyridin-3-yl)isoquinolin-3-yl)amino)-7-methyl-6,7-dihydro-5H-imidazo[1,2-d][1,4]diazepin-8(9H)-one] | 75
Cc1c(N)cncc1-c1cc2cc(Nc3cc4n(n3)CC(=O)N(C(C)C)CC4)ncc2cc1C#N [Compound 169, 6-(5-amino-4-methylpyridin-3-yl)-3-((6-isopropyl-7-oxo-5,6,7,8-tetrahydro-4H-pyrazolo[1,5-d][1,4]diazepin-2-yl)amino)isoquinoline-7-carbonitrile] | 0.39
Cc1c(-c2cc3cc(Nc4cc5n(n4)CC(=O)N(C(C)C)CC5)ncc3c(Cl)c2F)cnc2c1NCCO2 [Compound 115, 2-((8-chloro-7-fluoro-6-(8-methyl-2,3-dihydro-1H-pyrido[2,3-b][1,4]oxazin-7-yl)isoquinolin-3-yl)amino)-6-isopropyl-5,6-dihydro-4H-pyrazolo[1,5-d][1,4]diazepin-7(8H)-one] | 0.2
Cc1c(-c2ccc3cnc(Nc4cc5n(n4)CC(=O)N(C)CC5)cc3c2F)cnc2c1NCCO2 [Compound 174, 2-((5-fluoro-6-(8-methyl-2,3-dihydro-1H-pyrido[2,3-b][1,4]oxazin-7-yl)isoquinolin-3-yl)amino)-6-methyl-5,6-dihydro-4H-pyrazolo[1,5-d][1,4]diazepin-7(8H)-one] | 0.026
Cc1c(N)cncc1-c1cc2cc(Nc3cc4n(n3)Cc3nccn3CC4O)ncc2c(F)c1F (racemic) [Compound 170, (+/−)-8-((6-(5-amino-4-methylpyridin-3-yl)-7,8-difluoroisoquinolin-3-yl)amino)-5,6-dihydro-11H-imidazo[1,2-a]pyrazolo[1,5-d][1,4]diazepin-6-ol] | 0.035
Cc1ccncc1-c1cc2cc(Nc3cc4n(n3)CC(=O)N(C)CC4)ncc2c(Cl)c1F [Compound 110, 2-[[8-Chloro-7-fluoro-6-(4-methylpyridin-3-yl)isoquinolin-3-yl]amino]-6-methyl-4H,5H,6H,7H,8H-pyrazolo[1,5-d][1,4]diazepin-7-one] | 4.6
Cc1c(-c2cc3cc(Nc4cc5n(n4)CC(=O)NCC5)ncc3cc2F)cnc2c1NCC(C)O2 (racemic) [Compound 184, (+/−)-2-((6-(3,8-dimethyl-2,3-dihydro-1H-pyrido[2,3-b][1,4]oxazin-7-yl)-7-fluoroisoquinolin-3-yl)amino)-5,6-dihydro-4H-pyrazolo[1,5-d][1,4]diazepin-7(8H)-one] | 0.018
Cc1c(N)cncc1-c1cc2cc(Nc3cc4n(n3)CC(=O)N(CCO)CC4)ncc2cc1F [Compound 159, 2-((6-(5-amino-4-methylpyridin-3-yl)-7-fluoroisoquinolin-3-yl)amino)-6-(2-hydroxyethyl)-5,6-dihydro-4H-pyrazolo[1,5-d][1,4]diazepin-7(8H)-one] | 0.015
Cc1c(NS(=O)(=O)C2CC2)cncc1-c1cc2cc(Nc3cc4n(n3)CC(=O)N(C)CC4)ncc2cc1F [Compound 197, N-(5-(7-fluoro-3-((6-methyl-7-oxo-5,6,7,8-tetrahydro-4H-pyrazolo[1,5-d][1,4]diazepin-2-yl)amino)isoquinolin-6-yl)-4-methylpyridin-3-yl)cyclopropanesulfonamide] | 4.1
Cc1ncc(-c2cc3cc(Nc4cc5n(n4)CC(=O)N(C(C)C)CC5F)ncc3cc2F)c(C)c1N (racemic) [Compound 150, (+/-)-2-((6-(5-amino-4,6-dimethylpyridin-3-yl)-7-fluoroisoquinolin-3-yl)amino)-4-fluoro-6-isopropyl-5,6-dihydro-4H-pyrazolo[1,5-d][1,4]diazepin-7(8H)-one] | 0.15
Cc1c(-c2cc3cc(Nc4cc5n(n4)CC(=O)N(C)CC5)ncc3cc2F)cnc2c1CCCO2 [Compound 190, 2-((7-fluoro-6-(5-methyl-3,4-dihydro-2H-pyrano[2,3-b]pyridin-6-yl)isoquinolin-3-yl)amino)-6-methyl-5,6-dihydro-4H-pyrazolo[1,5-d][1,4]diazepin-7(8H)-one] | 0.24
CNCc1cc(-c2ccc3cnc(Nc4cc5n(n4)CC(=O)N(C)CC5)cc3c2)c(F)cc1C [Compound 220, 2-((6-(2-fluoro-4-methyl-5-((methylamino)methyl)phenyl)isoquinolin-3-yl)amino)-6-methyl-5,6-dihydro-4H-pyrazolo[1,5-d][1,4]diazepin-7(8H)-one] | 176

Continued, values first:

Ki [nM] | SMILES
0.043 | Cc1c(N)cncc1-c1cc2cc(Nc3cc4n(n3)CC(=O)N([C@@H](C)CO)CC4)ncc2cc1F (single isomer, unassigned) [Compound 149a]
1.3 | Cc1c(-c2cc(F)c3cnc(Nc4cc5n(n4)CC(=O)N(C)CC5)cc3c2)cnc2c1NCC[C@@]2(C)O (single isomer, unassigned) [Compound 231a]
0.02 | Cc1c(-c2cc3cc(Nc4cc5n(n4)Cc4nccn4CC5)ncc3cc2F)cnc2c1NCC[C@H]2O (single isomer, unassigned) [Compound 243b]
0.128 | Cc1c(N)cncc1-c1cc2cc(Nc3cc4n(n3)CC(=O)N(C(C)(C)C)C[C@H]4F)ncc2cc1F (single isomer, unassigned) [Compound 167a]
8.3 | CN[C@@H]1CCc2c(-c3cc4cc(Nc5cc6n(n5)CC(=O)N(C)CC6)ncc4cc3F)cncc21 (single isomer, unassigned) [Compound 228a]
0.457 | Cc1c(-c2cc3cc(Nc4cc5n(n4)CS(=O)(=O)N(C)C5)ncc3cc2F)cnc2c1NCC[C@@H]2O (single isomer, unassigned) [Compound 242a]
1.7 | Cc1c(-c2cc3cc(Nc4cc5n(n4)CS(=O)(=O)N(C)C5)ncc3cc2F)cnc2c1NCC[C@H]2O (single isomer, unassigned) [Compound 242b]
